# Measured values: patent US20190216956A1, “COMPOSITIONS FOR RADIOTHERAPY AND USES THEREOF” (priority 2016, published 2019)
# Counter-ions that a name gives are not always drawn.
# Columns and labels:
# NCI-28H cells [1] = test: Cytotoxicity assay (MTS) of NCI-28H cells treated with bleomycin, talc, talc bound to bleomycin (Example 16); assay type: cell-based; conditions: 72 hrs
# Experimental: Read absorbance (MTS assay) and calculate cells survival rate.
# 1. […] 500,000 cells/670,000=0.75 ml of cells/media mix need to take from flask and transfer to 9.25 ml media. […] Gently mix.
# 1. Bring back tubes from cold room to laboratory. Centrifuge 3200 rpm for 3 min. Take out supernatant.
# 3. Wash cells 2×300 μL DPBS, remove final wash.
# 6. Incubate plate 1 hr at 37° C., 5% CO2.
# NCI-2052H cells [2] = test: Cytotoxicity assay (MTS) of NCI-2052H cells: bleomycin, mitomycin, doxorubicin, paclitaxel, talc, talc bound to drugs (Example 23); assay type: cell-based; conditions: for Average readings: cells + drug, bleomycin / Average reading: cells + drug, mitomycin: absorbance 490 nm
# NCI-2052H cells [3] = test: Repeated cytotoxicity experiment (MTS): NCI-2052H cells, mitomycin, talc, talc bound to mitomycin (Example 24); assay type: cell-based; conditions: for Average reading: drug + cells: absorbance 490 nm
# Experimental: Compare survival rate of cells.
# 1. […] Protocol how to do that see in previous cytotoxicity experiment.
# (§1) 1. Centrifuge tubes at 3200 rpm for 3 min. Take out supernatant.
# 1. Incubate plate for 72 hrs at 37° C., 5% CO2.
# 3. Wash all wells 1×300 μL DPBS, remove final wash.
# NCI-28H cells [4] = test: Cytotoxicity assay (MTS) of NCI-28H cells: carboplatin, mitomycin, gemcitabine, talc, talc bound to drugs (Example 22); conditions: NCI-28H cells; for Average absorbance readings: cells + drug, mitomycin: 490 nm
# Experimental: Read absorbance (MTS assay) and calculate cells survive rate. Compare survival rate
# 1. Set up 3 cytotoxicity plates for tomorrow experiment: trypsinize NCI-28H cells (T-75 flask, passage 12): • Remove old medium, wash cells with 7 ml DPBS, remove DPBS, add 2 ml trypsin, incubate plates for 1-2′, when cells detached add 6 ml fresh medium, mix cells and medium. • Count cells under the microscope using the glass slide. […] If we need 200 wells, in each well will be 5,000 cells in 0.1 ml; so total we need 1,000,000 cells in 20 ml.
# 2. […] Final solution is 500 μL of 500 μM carboplatin.
# 4. […] Final solution is 500 μL of 200 μM Gemcitabine.
# as §1
# 3. Add 100 μL of each 8 preparations of diluted carboplatin (step 1 and 2) to the proper wells according to a plate layout.
# 4. Add 100 μL of each 8 preparations of diluted Gemcitabine (step 1, 2, 3) to the proper wells according to a plate layout.
# 6. Check the plate and start incubation at 37° C./5% CO2.
# 3. Wash all cells 1×300 μL DPBS, remove final wash.
# [5] = Talc bound to HRP- and cold-Avidin, 48 hours in PBS containing 10% FBS (Example 14); assay type: physicochemical
# Experimental: Purpose: To check how strong the conjugate of hot/cold Avidin to Talc is. […] Absorbance will be checked twice—once before washing with PBS containing 10% FBS and after 48 hours, washing will be done.
# 6. Weigh 8 mg of Avidin (cold Avidin), then resuspend it in 2 mL of PBS containing 40 ng/mL of “hot” Avidin. So the solution will now be 40 ng/mL hot Avidin+4 mg/mL of Cold Avidin. Label this tube as #1.
# 14. […] Two identical microplates need to be set up, labeling them as: plate #1 and plate #2. Design of the plate:
# 3. Wash both plates 3× with 300 μL PBS.
# 5. […] Mix constantly, cover plate with Aluminum foil.
# 6. Add 100 μL of TMB to samples in plate #1.
# 9. Read absorbance at 450 nm using the plate reader.
# 3. Collect 100 μL supernatant from samples except native controls and load on same plate.
# 4. Wash plate except supernatant samples 3× with 300 μL PBS.
# 6. Add 100 μL of TMB to all samples in plate#2.
molecule,measurement,setting,value
"Cc1c(N)nc([C@H](CC(N)=O)NC[C@H](N)C(N)=O)nc1C(=O)N[C@H](C(=O)N[C@H](C)[C@@H](O)[C@H](C)C(=O)N[C@H](C(=O)NCCc1nc(-c2nc(C(=O)NCCC[S+](C)C)cs2)cs1)[C@@H](C)O)[C@@H](O[C@@H]1OC(CO)[C@@H](O)C(O)C1O[C@H]1OC(CO)[C@@H](O)C(OC(N)=O)C1O)c1c[nH]cn1 (stereo partly drawn) [Bleomycin, Bleomycin sulfate Streptomyces verticillus]",% survival NCI-28H cells after treatment with BLEOMYCIN,NCI-28H cells [1]; 0.004 ug/ml,92.41%
same,% survival NCI-28H cells after treatment with BLEOMYCIN,NCI-28H cells [1]; 0.015 ug/ml,88.25%
same,% survival NCI-28H cells after treatment with BLEOMYCIN,NCI-28H cells [1]; 0.06 ug/ml,93.38%
same,% survival NCI-28H cells after treatment with BLEOMYCIN,NCI-28H cells [1]; 0.24 ug/ml,91.86%
same,% survival NCI-28H cells after treatment with BLEOMYCIN,NCI-28H cells [1]; 0.97 ug/ml,86.19%
same,% survival NCI-28H cells after treatment with BLEOMYCIN,NCI-28H cells [1]; 3.9 ug/ml,71.05%
same,% survival NCI-28H cells after treatment with BLEOMYCIN,NCI-28H cells [1]; 15.6 ug/ml,74.60%
same,% survival NCI-28H cells after treatment with BLEOMYCIN,NCI-28H cells [1]; 62.5 ug/ml,68.76%
same,% survival NCI-28H cells after treatment with BLEOMYCIN,NCI-28H cells [1]; 250 ug/ml,47.13%
same,% survival NCI-28H cells after treatment with BLEOMYCIN,NCI-28H cells [1]; 1000 ug/ml,24.92%
same,% survival from untreated cells,NCI-2052H cells [2]; Bleomycin 0.24 ug/ml,101.64%
same,% survival from untreated cells,NCI-2052H cells [2]; Bleomycin 0.97 ug/ml,97.34%
same,% survival from untreated cells,NCI-2052H cells [2]; Bleomycin 3.9 ug/ml,88.64%
same,% survival from untreated cells,NCI-2052H cells [2]; Bleomycin 15.6 ug/ml,51.72%
same,% survival from untreated cells,NCI-2052H cells [2]; Bleomycin 62.5 ug/ml,38.34%
same,% survival from untreated cells,NCI-2052H cells [2]; Bleomycin 250 ug/ml,20.89%
same,% survival from untreated cells,NCI-2052H cells [2]; Bleomycin 1000 ug/ml,14.62%
same,"Average readings: cells + drug, bleomycin",NCI-2052H cells [2]; bleomycin 0.24 μg/ml,1.3454
same,"Average readings: cells + drug, bleomycin",NCI-2052H cells [2]; bleomycin 0.97 μg/ml,1.2884
same,"Average readings: cells + drug, bleomycin",NCI-2052H cells [2]; bleomycin 3.9 μg/ml,1.1733
same,"Average readings: cells + drug, bleomycin",NCI-2052H cells [2]; bleomycin 15.6 μg/ml,0.6846
same,"Average readings: cells + drug, bleomycin",NCI-2052H cells [2]; bleomycin 62.5 μg/ml,0.5075
same,"Average readings: cells + drug, bleomycin",NCI-2052H cells [2]; bleomycin 250 μg/ml,0.2766
same,"Average readings: cells + drug, bleomycin",NCI-2052H cells [2]; bleomycin 1000 μg/ml,0.1935
CO[C@@]12[C@H](COC(N)=O)C3=C(C(=O)C(C)=C(N)C3=O)N1C[C@@H]1N[C@@H]12 [mitomycin],Average reading: drug + cells,NCI-2052H cells [3]; Mitomycin 0.013 uM,0.7907
same,Average reading: drug + cells,NCI-2052H cells [3]; Mitomycin 0.064 uM,0.8267
same,Average reading: drug + cells,NCI-2052H cells [3]; Mitomycin 8 uM,0.4217
same,Average reading: drug + cells,NCI-2052H cells [3]; Mitomycin 40 uM,0.2257
same,Average reading: drug + cells,NCI-2052H cells [3]; Mitomycin 200 uM,0.2243
same,Average reading: drug + cells,NCI-2052H cells [3]; Mitomycin .0026 uM,0.8637
same,% survival from untreated cells,NCI-2052H cells [3]; mitomycin 0.0026 (uM per Table 103),78.87%
same,% survival from untreated cells,NCI-2052H cells [3]; mitomycin 0.013 (uM per Table 103),72.21%
same,% survival from untreated cells,NCI-2052H cells [3]; mitomycin 0.064 (uM per Table 103),75.49%
same,% survival from untreated cells,NCI-2052H cells [3]; mitomycin 0.32 (uM per Table 103),75.10%
same,% survival from untreated cells,NCI-2052H cells [3]; mitomycin 1.6 (uM per Table 103),61.83%
same,% survival from untreated cells,NCI-2052H cells [3]; mitomycin 8 (uM per Table 103),38.51%
same,% survival from untreated cells,NCI-2052H cells [3]; mitomycin 40 (uM per Table 103),20.61%
same,% survival from untreated cells,NCI-2052H cells [3]; mitomycin 200 (uM per Table 103),20.49%
same,"Average reading: cells + drug, mitomycin",NCI-2052H cells [2]; mitomycin 0.013 μM,1.284
same,"Average reading: cells + drug, mitomycin",NCI-2052H cells [2]; mitomycin 0.064 μM,1.199
same,"Average reading: cells + drug, mitomycin",NCI-2052H cells [2]; mitomycin 8 μM,0.4142
same,"Average reading: cells + drug, mitomycin",NCI-2052H cells [2]; mitomycin 40 μM,0.2305
same,"Average reading: cells + drug, mitomycin",NCI-2052H cells [2]; mitomycin 200 μM,0.2098
same,"Average reading: cells + drug, mitomycin",NCI-2052H cells [2]; mitomycin .0026 μM,1.424
same,"Average absorbance readings: cells + drug, mitomycin",NCI-28H cells [4]; mitomycin 0.0026 μM,2.032
same,"% survival cells after exposure to drug for 72 hrs (cells + drug only), mitomycin",NCI-28H cells [4]; mitomycin 0.0026 μM,106.12%
same,"Average absorbance readings: cells + drug, mitomycin",NCI-28H cells [4]; mitomycin 0.013 μM,1.965
same,"% survival cells after exposure to drug for 72 hrs (cells + drug only), mitomycin",NCI-28H cells [4]; mitomycin 0.013 μM,102.65%
same,"Average absorbance readings: cells + drug, mitomycin",NCI-28H cells [4]; mitomycin 0.064 μM,1.8766
same,"% survival cells after exposure to drug for 72 hrs (cells + drug only), mitomycin",NCI-28H cells [4]; mitomycin 0.064 μM,98.03%
same,"Average absorbance readings: cells + drug, mitomycin",NCI-28H cells [4]; mitomycin 8 μM,0.3451
same,"% survival cells after exposure to drug for 72 hrs (cells + drug only), mitomycin",NCI-28H cells [4]; mitomycin 8 μM,18.03%
same,"Average absorbance readings: cells + drug, mitomycin",NCI-28H cells [4]; mitomycin 40 μM,0.52
same,"% survival cells after exposure to drug for 72 hrs (cells + drug only), mitomycin",NCI-28H cells [4]; mitomycin 40 μM,27.16%
same,"Average absorbance readings: cells + drug, mitomycin",NCI-28H cells [4]; mitomycin 200 μM,0.2464
same,"% survival cells after exposure to drug for 72 hrs (cells + drug only), mitomycin",NCI-28H cells [4]; mitomycin 200 μM,12.87%
"Avidin: Avidin from egg white (Sigma); 60,000 m.w. egg-white protein that binds biotin",stability of binding of Avidin to talc,[5],unchanged at 48 hours
